Values joined by “and” are separate entries in the source; they are usually repeats but may differ in a detail not shown here. Identical values can stand only once. Inconclusive results and toxic doses are left out. Rule for the calls: active = survival T/C of 150% or more; inactive = T/C below 125% in these data.
Tested on: CD2F1 mice, L1210 leukemia ip, survival T/C
Experiment: NCI In Vivo Anticancer Drug Screen. Data for tumor model L1210 Leukemia (intraperitoneal) in CD2F1 (CDF1) mice
Conditions: higher = longer survival
How it was run: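 Compound-dosed mice with transplantable tumor versus matched vehicle controls; endpoint ratio T/C reported.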

[1] = endpoint: mean survival time, dose: 100.0 mg/kg/injection, schedule: Q04DX002 (ip), vehicle: saline
[2] = endpoint: mean survival time, dose: 200.0 mg/kg/injection, schedule: Q04DX002 (ip), vehicle: saline
[3] = endpoint: mean survival time, dose: 100.0 mg/kg/injection, schedule: Q01DX009 (ip), vehicle: saline
[4] = endpoint: mean survival time, dose: 200.0 mg/kg/injection, schedule: Q01DX009 (ip), vehicle: saline
[5] = endpoint: mean survival time, dose: 400.0 mg/kg/injection, schedule: Q01DX009 (ip), vehicle: saline
[6] = endpoint: mean survival time, dose: 100.0 mg/kg/injection, schedule: Q01DX009 (ip), vehicle: saline with Tween-80
[7] = endpoint: mean survival time, dose: 100.0 mg/kg/injection, schedule: Q04DX003 (ip), vehicle: saline with Tween-80
[8] = endpoint: mean survival time, dose: 200.0 mg/kg/injection, schedule: Q01DX009 (ip), vehicle: saline with Tween-80
[9] = endpoint: mean survival time, dose: 200.0 mg/kg/injection, schedule: Q04DX003 (ip), vehicle: saline with Tween-80
[10] = endpoint: mean survival time, dose: 400.0 mg/kg/injection, schedule: Q04DX003 (ip), vehicle: saline with Tween-80
[11] = endpoint: mean survival time, dose: 100.0 mg/kg/injection, schedule: Q04DX003 (ip), vehicle: saline
[12] = endpoint: mean survival time, dose: 200.0 mg/kg/injection, schedule: Q04DX003 (ip), vehicle: saline
[13] = endpoint: mean survival time, dose: 400.0 mg/kg/injection, schedule: Q04DX003 (ip), vehicle: saline

Measured: T/C

CCOC(=O)c1cc(=O)cc(C(=O)OCC)o1
inactive: endpoint: mean survival time, dose: 100.0 mg/kg/injection, schedule: Q01DX001 (ip), vehicle: saline with Tween-80 100 % of control | endpoint: mean survival time, dose: 200.0 mg/kg/injection, schedule: Q01DX001 (ip), vehicle: saline with Tween-80 100 % of control | endpoint: mean survival time, dose: 400.0 mg/kg/injection, schedule: Q01DX001 (ip), vehicle: saline with Tween-80 100 % of control

CC[N+]1(C)C2CCC1CC(O)C2 (stereo not drawn)
inactive: [1] 105 % of control | [2] 102 % of control

Oc1ccc(C(=S)N2CCOCC2)cc1
inactive: [3] 100 % of control | [4] 95 % of control | [5] 94 % of control

CCOC(=O)C(CCC(C)C)C(C)=O (stereo not drawn)
inactive: endpoint: mean survival time, dose: 100.0 mg/kg/injection, schedule: Q01DX005 (ip), vehicle: saline with Tween-80 93 % of control | endpoint: mean survival time, dose: 200.0 mg/kg/injection, schedule: Q01DX005 (ip), vehicle: saline with Tween-80 103 % of control | endpoint: mean survival time, dose: 400.0 mg/kg/injection, schedule: Q01DX005 (ip), vehicle: saline with Tween-80 106 % of control

COc1cc2c(cc1OC)-c1nc(N)sc1CC2
inactive: endpoint: mean survival time, dose: 100.0 mg/kg/injection, schedule: Q04DX002 (ip), vehicle: saline with Tween-80 107 % of control | endpoint: mean survival time, dose: 200.0 mg/kg/injection, schedule: Q04DX002 (ip), vehicle: saline with Tween-80 98 % of control | endpoint: mean survival time, dose: 400.0 mg/kg/injection, schedule: Q04DX002 (ip), vehicle: saline with Tween-80 103 % of control

Clc1ccc(CN2CN(Cc3ccc(Cl)cc3)CN(Cc3ccc(Cl)cc3)C2)cc1
inactive: [6] 95 % of control | [7] 100 % of control | [8] 97 % of control | [9] 97 % of control | endpoint: mean survival time, dose: 400.0 mg/kg/injection, schedule: Q01DX009 (ip), vehicle: saline with Tween-80 100 % of control | [10] 97 % of control

CCCCCOC(=O)CCCc1ccc(N(CCCl)CCCl)cc1
inactive: endpoint: mean survival time, dose: 12.5 mg/kg/injection, schedule: Q01DX009 (ip), vehicle: saline 118 % of control | [3] 88 % of control

N#CC1CNC(N)NC1N (stereo not drawn)
inactive: endpoint: mean survival time, dose: 50.0 mg/kg/injection, schedule: Q01DX009 (ip), vehicle: Klucel (hydroxypropylcellulose) (HPC) 98 % of control | endpoint: mean survival time, dose: 100.0 mg/kg/injection, schedule: Q01DX009 (ip), vehicle: Klucel (hydroxypropylcellulose) (HPC) 91 % of control | endpoint: mean survival time, dose: 200.0 mg/kg/injection, schedule: Q01DX009 (ip), vehicle: Klucel (hydroxypropylcellulose) (HPC) 98 % of control

Clc1ccc2c(NCCN3CCCCCC3)nc(C(Cl)(Cl)Cl)nc2c1
inactive: endpoint: mean survival time, dose: 50.0 mg/kg/injection, schedule: Q01DX009 (ip), vehicle: saline with Tween-80 94 % of control | endpoint: mean survival time, dose: 50.0 mg/kg/injection, schedule: Q04DX003 (ip), vehicle: saline with Tween-80 103 % of control | [6] 98 % of control | [7] 94 % of control | [8] 98 % of control | [9] 92 % of control

[Cl][Pt+2][Cl].[NH-]c1cc(Cl)c(Cl)c(Cl)c1[NH-]
inactive: endpoint: mean survival time, dose: 2.5 mg/kg/injection, schedule: Q01DX009 (ip), vehicle: saline with Tween-80 105 % of control | endpoint: mean survival time, dose: 5.0 mg/kg/injection, schedule: Q01DX009 (ip), vehicle: saline with Tween-80 100 % of control | endpoint: mean survival time, dose: 10.0 mg/kg/injection, schedule: Q01DX009 (ip), vehicle: saline with Tween-80 100 % of control | endpoint: mean survival time, dose: 20.0 mg/kg/injection, schedule: Q01DX009 (ip), vehicle: saline with Tween-80 107 % of control | endpoint: mean survival time, dose: 40.0 mg/kg/injection, schedule: Q01DX009 (ip), vehicle: saline with Tween-80 94 % of control

COc1ccc(OC)c(/C=C/c2cc3ccccc3c[n+]2C)c1
inactive: endpoint: mean survival time, dose: 3.13 mg/kg/injection, schedule: Q01DX009 (ip), vehicle: saline with Tween-80 94 % of control | endpoint: mean survival time, dose: 6.25 mg/kg/injection, schedule: Q01DX009 (ip), vehicle: saline with Tween-80 102 % of control | endpoint: mean survival time, dose: 12.5 mg/kg/injection, schedule: Q01DX009 (ip), vehicle: saline with Tween-80 105 % of control

Cc1nc(N)nc(N)n1
inactive: [7] 100 % of control | [9] 100 % of control | [10] 97 % of control

C[N+](C)(C)CCP(=O)([O-])O
inactive: [11] 98 % of control | [12] 101 % of control | [13] 101 % of control

O=[N+]([O-])c1ccccc1SSc1ccccc1[N+](=O)[O-]
inactive: [7] 97 % of control | [9] 95 % of control | [10] 104 % of control

O=C(NO)c1ccc(O)c(O)c1
inactive: endpoint: mean survival time, dose: 25.0 mg/kg/injection, schedule: Q01DX009 (ip), vehicle: water 115 % of control | endpoint: mean survival time, dose: 164.71 mg/kg/injection, schedule: Q01DX009 (ip), vehicle: water 121 % of control | endpoint: median survival time, dose: 18.75 mg/kg/injection, schedule: Q03HX024 (ip), vehicle: water 113 % of control | endpoint: median survival time, dose: 22.5 mg/kg/injection, schedule: Q03HX024 (ip), vehicle: water 109 % of control | endpoint: median survival time, dose: 37.5 mg/kg/injection, schedule: Q03HX024 (ip), vehicle: water 124 % of control | endpoint: median survival time, dose: 45.0 mg/kg/injection, schedule: Q03HX024 (ip), vehicle: water 119 % of control | endpoint: median survival time, dose: 50.0 mg/kg/injection, schedule: Q01DX009 (ip), vehicle: water 117 % of control | endpoint: median survival time, dose: 100.0 mg/kg/injection, schedule: Q01DX009 (ip), vehicle: water 124 % of control | endpoint: median survival time, dose: 120.0 mg/kg/injection, schedule: Q01DX009 (ip), vehicle: water 122 % of control | endpoint: median survival time, dose: 600.0 mg/kg/injection, schedule: Q01DX009 (ip), vehicle: water 95 % of control
active: endpoint: mean survival time, dose: 196.0 mg/kg/injection, schedule: Q01DX009 (ip), vehicle: water 152 % of control | endpoint: mean survival time, dose: 200.0 mg/kg/injection, schedule: Q01DX009 (ip), vehicle: water 167 % of control | endpoint: mean survival time, dose: 245.0 mg/kg/injection, schedule: Q01DX009 (ip), vehicle: water 168 % of control | endpoint: mean survival time, dose: 307.0 mg/kg/injection, schedule: Q01DX009 (ip), vehicle: water 167 % of control | endpoint: mean survival time, dose: 307.2 mg/kg/injection, schedule: Q01DX009 (ip), vehicle: water 176 % of control | endpoint: mean survival time, dose: 336.14 mg/kg/injection, schedule: Q01DX009 (ip), vehicle: water 155 % of control | endpoint: mean survival time, dose: 383.0 mg/kg/injection, schedule: Q01DX009 (ip), vehicle: water 185 % of control | endpoint: mean survival time, dose: 384.0 mg/kg/injection, schedule: Q01DX009 (ip), vehicle: water 162 % of control | endpoint: mean survival time, dose: 400.0 mg/kg/injection, schedule: Q01DX009 (ip), vehicle: water 167 % of control | endpoint: mean survival time, dose: 480.0 mg/kg/injection, schedule: Q01DX009 (ip), vehicle: water 167 % of control and 206 % of control | endpoint: mean survival time, dose: 480.2 mg/kg/injection, schedule: Q01DX009 (ip), vehicle: water 187 % of control | endpoint: mean survival time, dose: 600.0 mg/kg/injection, schedule: Q01DX009 (ip), vehicle: water 154 % of control and 164 % of control | endpoint: median survival time, dose: 180.0 mg/kg/injection, schedule: Q03HX024 (ip), vehicle: water 214 % of control | endpoint: median survival time, dose: 225.0 mg/kg/injection, schedule: Q03HX024 (ip), vehicle: water 273 % of control | endpoint: median survival time, dose: 240.0 mg/kg/injection, schedule: Q01DX009 (ip), vehicle: water 154 % of control | endpoint: median survival time, dose: 268.0 mg/kg/injection, schedule: Q01DX009 (ip), vehicle: water 160 % of control | endpoint: median survival time, dose: 270.0 mg/kg/injection, schedule: Q03HX024 (ip), vehicle: water 238 % of control | endpoint: median survival time, dose: 400.0 mg/kg/injection, schedule: Q01DX009 (ip), vehicle: water 162 % of control and 163 % of control | endpoint: median survival time, dose: 480.0 mg/kg/injection, schedule: Q01DX009 (ip), vehicle: water 178 % of control | endpoint: median survival time, dose: 720.0 mg/kg/injection, schedule: Q01DX009 (ip), vehicle: water 170 % of control

O=C1OC(C(O)CO)C(O)=C1O (stereo not drawn)
inactive: endpoint: mean survival time, dose: 100.0 mg/kg/injection, schedule: Q01DX001 (ip), vehicle: saline 101 % of control | [3] 93 % of control and 108 % of control | [1] 109 % of control and 112 % of control | [11] 106 % of control | endpoint: mean survival time, dose: 200.0 mg/kg/injection, schedule: Q01DX001 (ip), vehicle: saline 101 % of control | [4] 86 % of control and 102 % of control | [2] 97 % of control and 104 % of control | [12] 98 % of control | endpoint: mean survival time, dose: 400.0 mg/kg/injection, schedule: Q01DX001 (ip), vehicle: saline 106 % of control | [5] 89 % of control and 96 % of control | endpoint: mean survival time, dose: 400.0 mg/kg/injection, schedule: Q04DX002 (ip), vehicle: saline 96 % of control and 102 % of control | [13] 98 % of control

ClCCc1cnc[nH]1
inactive: endpoint: mean survival time, dose: 25.0 mg/kg/injection, schedule: Q01DX005 (ip), vehicle: water 104 % of control | endpoint: mean survival time, dose: 50.0 mg/kg/injection, schedule: Q01DX005 (ip), vehicle: water 101 % of control | endpoint: mean survival time, dose: 100.0 mg/kg/injection, schedule: Q01DX005 (ip), vehicle: water 105 % of control
